These results are taken from US20160237052A1, “Histamine-3 Receptor Antagonists” (MediSynergics, LLC, priority 2015, published 2016).

The structures appear in SMILES notation. Read-outs that look alike come from different tables or passages of the source.

In one assay the target is H3 (UniProt Q9Y5N1). Briefly: Histamine H3 receptor binding (NIMH PDSP). To be noted: H3 receptor subtype. The method, then:
The compounds from the above Examples were tested for activity vs. histamine receptor subtypes (i.e., H1, H2, H3), at an initial concentration of 10 μM. Binding activity measurement was performed by the NIMH Psychoactive Drug Screening Program (PDSP) at the University of North Carolina Chapel Hill, N.C. The procedures employed by the PDSP are described in the NIMH PDSP Assay Protocol Book Version II (see, http://pdsp.med.unc.edu/PDSP %20Protocols %2011%202013-03-28.pdf). Data (e.g., H3antagonist activity) may also be generated using a commercially available kit from Invitrogen/Thermo Fisher Scientific Inc. (Tango™ H3-bla U2OS DA Assay Kit). Data for serotonin reuptake activity (SERT, % inhibition at 10 μM drug concentration; calculated Ki) were also generated by PDSP.

Another assay deals with H1 (Homo sapiens, UniProt P35367). In words: Histamine H1 receptor binding (NIMH PDSP). To be noted: for inhibition at 10 µM: read-out: Inhibition (% at 10 μM). The method, then:
The compounds from the above Examples were tested for activity vs. histamine receptor subtypes (i.e., H1, H2, H3), at an initial concentration of 10 μM. Binding activity measurement was performed by the NIMH Psychoactive Drug Screening Program (PDSP) at the University of North Carolina Chapel Hill, N.C. […] Data (e.g., H3antagonist activity) may also be generated using a commercially available kit from Invitrogen/Thermo Fisher Scientific Inc. (Tango™ H3-bla U2OS DA Assay Kit).

A further assay addresses SERT (Homo sapiens, UniProt P31645). In words: Serotonin reuptake activity (SERT), PDSP. To be noted: for inhibition at 10 µM: 10 μM drug concentration; for Ki: calculated Ki. The assay is classed as binding.

Sequence of SERT (P31645 whole entry, species assumed): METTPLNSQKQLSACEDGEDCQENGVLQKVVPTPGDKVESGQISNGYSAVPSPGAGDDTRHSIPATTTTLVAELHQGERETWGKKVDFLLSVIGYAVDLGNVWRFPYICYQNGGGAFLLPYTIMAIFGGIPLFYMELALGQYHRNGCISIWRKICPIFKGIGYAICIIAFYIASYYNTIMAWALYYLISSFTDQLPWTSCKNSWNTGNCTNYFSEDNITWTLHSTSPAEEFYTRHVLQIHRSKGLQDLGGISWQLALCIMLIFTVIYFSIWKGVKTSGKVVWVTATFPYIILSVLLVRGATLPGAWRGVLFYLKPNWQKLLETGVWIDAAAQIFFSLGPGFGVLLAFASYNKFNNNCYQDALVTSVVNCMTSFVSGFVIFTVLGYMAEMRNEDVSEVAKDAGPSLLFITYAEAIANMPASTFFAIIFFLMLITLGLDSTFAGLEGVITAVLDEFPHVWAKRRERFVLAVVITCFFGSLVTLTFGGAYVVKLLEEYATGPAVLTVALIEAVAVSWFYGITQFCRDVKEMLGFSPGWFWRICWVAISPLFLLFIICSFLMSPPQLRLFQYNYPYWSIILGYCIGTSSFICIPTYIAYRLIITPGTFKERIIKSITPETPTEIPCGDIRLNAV
Sequence of H1 (P35367 whole entry): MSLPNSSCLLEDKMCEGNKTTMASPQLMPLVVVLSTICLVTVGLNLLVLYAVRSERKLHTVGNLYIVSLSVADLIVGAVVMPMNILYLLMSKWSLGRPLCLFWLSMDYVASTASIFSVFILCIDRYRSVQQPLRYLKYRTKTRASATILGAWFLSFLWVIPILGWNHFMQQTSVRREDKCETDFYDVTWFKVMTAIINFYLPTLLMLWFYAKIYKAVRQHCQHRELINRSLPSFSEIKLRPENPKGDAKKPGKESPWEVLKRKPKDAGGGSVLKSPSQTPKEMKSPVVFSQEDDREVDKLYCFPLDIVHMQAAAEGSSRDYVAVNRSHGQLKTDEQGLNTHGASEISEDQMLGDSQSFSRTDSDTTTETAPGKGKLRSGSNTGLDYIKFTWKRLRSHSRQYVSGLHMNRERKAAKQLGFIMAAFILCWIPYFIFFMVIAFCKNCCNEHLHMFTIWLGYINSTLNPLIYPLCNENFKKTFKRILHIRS

Take `CN(C)CCCC1(c2ccc(F)cc2)OCc2cc(CN3CCCCC3)ccc21` (stereo not drawn) [Example 1]: on H3, the affinity corresponds to a Ki of 20 nM and the “Inhibition (% at 10 μM)” value is given as 99.6%. Besides, on H1, affinity was put at a Ki of 101 nM and the inhibition (as a rule, the drop in the measured response relative to a control, in per cent) at 10 µM is 89.9%. Moreover, at SERT, the inhibition at 10 µM was 98.8% and the inhibition constant (Ki) (usually the equilibrium dissociation constant of an inhibitor or competing ligand from its target) is 29 nM.
On to `CN(C)CCCC1(c2ccc(F)cc2)OCc2cc(CN3CCN(C)CC3)ccc21` (stereo not drawn) [Example 2, 3-[5-((4-methylpiperazin-1-yl)methyl)-1-(4-fluorophenyl)-1,3-dihydro-2-benzofuran-1-yl]-N,N-dimethylpropan-1-amine], for which the Ki at H3 was 155 nM; at H1 (H1 receptor subtype, read-out: Ki), 144 nM; on SERT, 31 nM. Besides, at H3, the “Inhibition (% at 10 μM)” value is given as 89.8%. In addition, the inhibition at 10 µM at H1 (H1 receptor subtype, 10 μM) stood at 89.8%; against SERT, 99.3%.
